Data published in US20150118229A1, “JAK1 SELECTIVE INHIBITOR AND USES THEREOF” (ABBVIE INC., priority 2013, published 2015).
“And” between values parts separate entries of the source, which are not always exact repeats. Identical values can stand only once. “Also recorded” adds a separate entry of the source.

How the values were obtained:
[1] = Plasma protein binding, dog; type: in vitro ADME
[2] = Metabolic stability in hepatocytes, rat; type: in vitro ADME; conditions: read-out: intrinsic clearance in hepatocytes (converted)
Rock1 = Rock1 (Homo sapiens, UniProt Q13464); experiment: Kinase panel, Rock1; type: biochemical
Chain of Rock1 (Q13464 whole entry, species assumed): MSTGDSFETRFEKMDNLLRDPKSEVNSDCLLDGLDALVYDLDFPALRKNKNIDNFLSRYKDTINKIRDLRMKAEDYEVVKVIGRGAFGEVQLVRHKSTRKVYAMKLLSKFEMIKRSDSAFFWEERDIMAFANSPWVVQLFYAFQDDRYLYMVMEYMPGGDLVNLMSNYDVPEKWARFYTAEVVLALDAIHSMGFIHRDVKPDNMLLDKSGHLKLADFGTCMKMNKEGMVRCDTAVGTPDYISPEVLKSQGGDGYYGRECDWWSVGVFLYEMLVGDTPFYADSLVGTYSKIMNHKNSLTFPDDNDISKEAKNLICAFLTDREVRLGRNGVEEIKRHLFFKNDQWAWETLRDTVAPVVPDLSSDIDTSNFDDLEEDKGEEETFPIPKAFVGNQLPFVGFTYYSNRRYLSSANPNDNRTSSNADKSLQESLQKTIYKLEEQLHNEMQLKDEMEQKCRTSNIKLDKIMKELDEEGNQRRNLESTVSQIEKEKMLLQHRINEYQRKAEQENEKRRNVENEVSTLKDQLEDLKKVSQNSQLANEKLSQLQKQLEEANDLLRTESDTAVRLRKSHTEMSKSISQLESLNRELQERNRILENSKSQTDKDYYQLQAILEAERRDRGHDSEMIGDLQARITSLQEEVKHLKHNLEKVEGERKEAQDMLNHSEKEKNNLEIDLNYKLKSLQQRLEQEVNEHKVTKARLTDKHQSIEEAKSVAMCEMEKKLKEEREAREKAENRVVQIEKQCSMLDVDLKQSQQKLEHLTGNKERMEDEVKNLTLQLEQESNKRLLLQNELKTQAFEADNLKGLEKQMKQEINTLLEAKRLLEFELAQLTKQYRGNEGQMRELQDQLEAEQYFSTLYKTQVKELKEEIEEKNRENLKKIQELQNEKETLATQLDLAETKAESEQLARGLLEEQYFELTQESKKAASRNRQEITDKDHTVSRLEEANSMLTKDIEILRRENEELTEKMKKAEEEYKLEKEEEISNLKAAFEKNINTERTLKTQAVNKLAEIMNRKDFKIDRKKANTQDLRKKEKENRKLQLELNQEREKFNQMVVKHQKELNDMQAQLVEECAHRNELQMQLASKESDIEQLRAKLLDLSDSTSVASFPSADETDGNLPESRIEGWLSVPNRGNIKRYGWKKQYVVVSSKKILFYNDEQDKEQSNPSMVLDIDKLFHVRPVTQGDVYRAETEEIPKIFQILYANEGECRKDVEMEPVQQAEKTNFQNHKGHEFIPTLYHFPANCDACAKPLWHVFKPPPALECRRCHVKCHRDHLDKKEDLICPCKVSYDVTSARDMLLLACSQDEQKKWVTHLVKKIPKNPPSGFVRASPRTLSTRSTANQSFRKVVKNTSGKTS

CYP2C8 = CYP2C8 (Homo sapiens, UniProt P10632); experiment: CYP inhibition in human liver microsomes, CYP2C8
Chain of CYP2C8 (P10632 whole entry): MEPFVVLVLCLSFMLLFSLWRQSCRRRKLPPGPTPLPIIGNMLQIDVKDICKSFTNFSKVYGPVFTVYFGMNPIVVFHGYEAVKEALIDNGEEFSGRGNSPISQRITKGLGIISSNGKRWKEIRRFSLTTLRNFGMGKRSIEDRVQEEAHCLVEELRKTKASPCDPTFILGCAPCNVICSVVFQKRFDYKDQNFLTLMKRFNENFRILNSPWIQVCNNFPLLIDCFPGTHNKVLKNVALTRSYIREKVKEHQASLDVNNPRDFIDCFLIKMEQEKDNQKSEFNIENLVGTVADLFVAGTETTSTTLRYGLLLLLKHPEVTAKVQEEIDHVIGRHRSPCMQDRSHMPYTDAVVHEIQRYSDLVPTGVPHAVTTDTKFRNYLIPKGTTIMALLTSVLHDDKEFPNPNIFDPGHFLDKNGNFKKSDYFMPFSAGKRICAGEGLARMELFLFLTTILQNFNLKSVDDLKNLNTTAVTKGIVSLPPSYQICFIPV

OAT3 = OAT3 (Homo sapiens, UniProt Q8TCC7); experiment: Transporter inhibition, OAT3
Chain of OAT3 (Q8TCC7 whole entry): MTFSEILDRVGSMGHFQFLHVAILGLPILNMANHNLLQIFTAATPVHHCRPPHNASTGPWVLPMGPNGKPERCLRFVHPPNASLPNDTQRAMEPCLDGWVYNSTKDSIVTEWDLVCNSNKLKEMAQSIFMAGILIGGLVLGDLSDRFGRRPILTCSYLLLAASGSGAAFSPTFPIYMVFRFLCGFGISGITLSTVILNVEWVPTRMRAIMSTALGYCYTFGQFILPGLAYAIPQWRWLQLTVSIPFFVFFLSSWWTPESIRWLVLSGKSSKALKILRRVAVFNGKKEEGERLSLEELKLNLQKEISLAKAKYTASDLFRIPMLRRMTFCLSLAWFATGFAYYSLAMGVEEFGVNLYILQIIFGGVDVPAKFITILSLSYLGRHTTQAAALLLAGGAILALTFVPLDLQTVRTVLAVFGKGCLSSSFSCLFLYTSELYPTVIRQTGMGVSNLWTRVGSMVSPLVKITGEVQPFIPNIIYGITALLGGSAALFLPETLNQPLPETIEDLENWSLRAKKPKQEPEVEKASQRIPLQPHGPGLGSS

[3] = test system: IL-7-dependent STAT5 phosphorylation; experiment: Ex vivo IL-7-stimulated pSTAT5 in blood of orally dosed rats; conditions: Rattus norvegicus, po; rats dosed bid 14 days, blood 12 hours after final dose; read-out: IC50, inhibition of IL-7-induced pSTAT5 formation ex vivo
Description: Unlike other common gamma chain receptors, IL-7 receptors are expressed relatively abundantly on peripheral blood T cells, enabling the use of IL-7 as an agonist in ex vivo stimulation assays. Stimulation of whole blood with IL-7 leads to phosphorylation of STAT5, which can be measured by flow cytometry. Because STAT proteins are Jak kinase substrates, inhibition of their phosphorylation can be considered a mechanistic readout for Jak inhibition.

[4] = Metabolic stability in liver microsomes, human; type: in vitro ADME; conditions: read-out: intrinsic clearance in liver microsomes (converted)
[5] = Human PK, single ascending dose Study M13-401; type: in vivo; conditions: for AUC(0-t) / AUC(0-inf): human, in vivo
CYP3A5 = CYP3A5 (Homo sapiens, UniProt P20815); experiment: Metabolism by recombinant CYP3A5; type: in vitro ADME
Chain of CYP3A5 (P20815 whole entry): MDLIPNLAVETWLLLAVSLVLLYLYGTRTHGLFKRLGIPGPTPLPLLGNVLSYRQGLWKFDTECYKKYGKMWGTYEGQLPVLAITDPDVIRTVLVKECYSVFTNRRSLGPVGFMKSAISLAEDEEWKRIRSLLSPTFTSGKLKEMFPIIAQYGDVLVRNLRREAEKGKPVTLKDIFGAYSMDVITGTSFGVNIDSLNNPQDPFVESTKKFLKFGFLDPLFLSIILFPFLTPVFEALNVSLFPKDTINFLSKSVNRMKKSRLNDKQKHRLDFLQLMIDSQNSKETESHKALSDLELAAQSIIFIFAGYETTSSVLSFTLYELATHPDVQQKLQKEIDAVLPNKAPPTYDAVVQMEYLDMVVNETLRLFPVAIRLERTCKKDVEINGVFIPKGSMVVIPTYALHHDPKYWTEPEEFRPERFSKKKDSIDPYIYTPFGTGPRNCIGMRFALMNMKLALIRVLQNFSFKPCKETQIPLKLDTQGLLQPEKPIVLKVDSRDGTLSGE
Description: (§1) In vitro biotransformation of Compound 1 primarily occurred at imidazolpyrrolopyrazinyl ethyl pyrrolidine moiety.

[6] = Pivotal 4-week GLP oral toxicity study in dogs; type: in vivo, beagle dogs
Description: The GLP-compliant studies each included 4 weeks of oral dosing followed by a 4-week recovery period in both rats and dogs followed by GLP-compliant chronic toxicity studies in rats (6 months of oral dosing) and dogs (9 months of oral dosing).

[7] = test system: peripheral NK, NKT cells, circulating reticulocytes; experiment: NK, NKT cell and reticulocyte counts in healthy human subjects dosed bid for 14 days; type: in vivo; conditions: 3, 6, 12, 24 mg bid 14 days
Procedure: The following procedure is provided to illustrate a method of counting TBNK cells from a blood sample, such as one collected from a human subject orally dosed with a compound of the invention. The method (including the type of instruments and reagents used) as described herein in is non-limiting, as minor variations to the procedure and equivalent instruments and reagents can be readily envisioned.
Specifically, a blood sample is collected into 3 mL lavender K2 EDTA Vacutainer at specified time points and tubes mixed. Samples are shipped to analysis facility at ambient temperature overnight, and sample analysis is preferably done on the day received.
Two BD Trucount tubes (BD Biosciences, cat #340334) are used per sample and labeled with sample number followed by A or B. Two tubes are also set up for the BD Multi-Check Control (BD Biosciences, cat #340911) that is a stabilized blood sample used as an inter-run control each time samples are analyzed. […]
For NKT cell determination, cell numbers are determined by using FlowJo and looking at the CD3^+/CD16^+/CD56^+ population. The number of cells/μL is calculated by using the following equation: (the number of events in cell population/the number of events in absolute bead count region)×(the number of beads per test*/test volume). *This value is found on BD Trucount tube label.

[8] = test system: adjuvant-induced arthritis (paw swelling, bone erosion); experiment: Adjuvant-induced arthritis (AIA) in Lewis rats; type: in vivo
Procedure: The inflammation appears in the contra-lateral (left) hind paw seven days after the initial immunization. […] Rats are lightly anesthetized with an inhalant anesthetic (isoflurane) and the contra-lateral (left) hind paw is dipped into the plethysmograph and the paw volume is recorded. The rats are scored every other day up to day 17 after immunization. […] Bone volume and density is determined for a 360 μm (200 slice) vertical section encompassing the tarsal section of the paw. […] Drug exposure is determined in the plasma using LC/MS.

CYP3A4 = CYP3A4 (Homo sapiens, UniProt P08684); experiment: Metabolism by recombinant CYP3A4; type: in vitro ADME
Chain of CYP3A4 (P08684 whole entry): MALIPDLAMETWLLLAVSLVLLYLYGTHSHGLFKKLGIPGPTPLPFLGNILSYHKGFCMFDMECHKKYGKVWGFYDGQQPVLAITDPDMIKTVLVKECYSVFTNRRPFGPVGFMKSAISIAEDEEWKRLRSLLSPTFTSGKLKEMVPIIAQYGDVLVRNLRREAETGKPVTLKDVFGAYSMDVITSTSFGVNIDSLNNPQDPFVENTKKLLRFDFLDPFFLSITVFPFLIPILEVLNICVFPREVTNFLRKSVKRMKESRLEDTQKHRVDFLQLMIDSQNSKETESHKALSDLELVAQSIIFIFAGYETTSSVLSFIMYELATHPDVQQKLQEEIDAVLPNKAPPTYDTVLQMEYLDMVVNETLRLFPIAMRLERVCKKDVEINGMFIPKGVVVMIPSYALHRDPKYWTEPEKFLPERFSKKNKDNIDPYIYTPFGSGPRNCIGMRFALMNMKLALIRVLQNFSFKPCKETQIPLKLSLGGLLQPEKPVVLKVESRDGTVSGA
Description: as §1

[9] = Metabolic stability in liver microsomes, dog; type: in vitro ADME; conditions: read-out: intrinsic clearance in liver microsomes (scaled)
MATEK = MATEK (Homo sapiens, UniProt Q86VL8); experiment: Transporter inhibition, MATEK
Chain of MATEK (Q86VL8 1-566 isoform Q86VL8-3): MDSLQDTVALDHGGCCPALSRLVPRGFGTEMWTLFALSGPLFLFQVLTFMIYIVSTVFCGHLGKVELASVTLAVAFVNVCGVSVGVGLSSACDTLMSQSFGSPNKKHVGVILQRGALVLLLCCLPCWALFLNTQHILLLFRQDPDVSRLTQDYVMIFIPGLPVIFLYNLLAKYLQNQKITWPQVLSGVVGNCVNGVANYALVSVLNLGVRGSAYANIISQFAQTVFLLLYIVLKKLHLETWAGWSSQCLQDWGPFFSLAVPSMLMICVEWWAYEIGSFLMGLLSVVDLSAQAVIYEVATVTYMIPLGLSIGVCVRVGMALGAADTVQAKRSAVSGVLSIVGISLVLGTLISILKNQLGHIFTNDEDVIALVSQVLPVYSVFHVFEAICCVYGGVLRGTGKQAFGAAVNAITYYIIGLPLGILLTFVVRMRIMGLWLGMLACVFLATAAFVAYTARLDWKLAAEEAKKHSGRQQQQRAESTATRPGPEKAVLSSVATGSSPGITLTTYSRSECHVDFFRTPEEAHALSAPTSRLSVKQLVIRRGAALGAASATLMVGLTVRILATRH

CC[C@@H]1CN(C(=O)NCC(F)(F)F)C[C@@H]1c1cnc2cnc3[nH]ccc3n12 [Compound 1, (3S,4R)-3-ethyl-4-(3H-imidazo[1,2-a]pyrrolo[2,3-e]pyrazin-8-yl)-N-(2,2,2-trifluoroethyl)pyrrolidine-1-carboxamide]
fraction unbound [1]: 0.82
CLint scaled at 1 μM [2]: 67.8 mL/min/kg
IC50 (Rock1): 0.55 µM
time-dependent inhibition of CYP2C8 (CYP2C8; human liver microsomes): No obvious time-dependent inhibition
inhibition of CYP2C8 (CYP2C8; up to 30 μM): did not inhibit; also recorded: not an inhibitor
IC50 (OAT3): 43 µM
IC50 [3]: ~0.02 µM
CLint scaled at 0.5 μM [4]: 31.2 mL/min/kg
decrease in AUC in the presence of food ([5]; Substudy 2, 3 mg single dose): < 1%
AUC(0-t) ([5]; oral, 3 mg): 102 ng·h/mL
AUC(0-t) ([5]; oral, 6 mg): 159 ng·h/mL
AUC(0-t) ([5]; oral, 24 mg): 612 ng·h/mL
AUC(0-inf) ([5]; single oral 1 mg, mean ± SD): 30.1 ± 5.72 ng·h/mL
AUC(0-t) ([5]; single oral 1 mg, mean ± SD): 29.8 ± 5.78 ng·h/mL
AUC(0-t) ([5]; single oral 3 mg, mean ± SD): 102 ± 27.5 ng·h/mL
AUC(0-t) ([5]; single oral 6 mg, mean ± SD): 159 ± 37.5 ng·h/mL
AUC(0-t) ([5]; single oral 12 mg, mean ± SD): 329 ± 48.9 ng·h/mL
AUC(0-t) ([5]; single oral 24 mg, mean ± SD): 612 ± 78.6 ng·h/mL
AUC(0-t) ([5]; single oral 36 mg, mean ± SD): 909 ± 201 ng·h/mL
AUC(0-inf) ([5]; single oral 48 mg, mean ± SD): 1040 ± 174 ng·h/mL
AUC(0-t) ([5]; single oral 48 mg, mean ± SD): 1030 ± 174 ng·h/mL
fe, dose recovered unchanged in urine ([5]; single oral 1 mg, mean ± SD): 17.7 ± 9.58%
fe, dose recovered unchanged in urine ([5]; single oral 3 mg, mean ± SD): 15.6 ± 4.44%
fe, dose recovered unchanged in urine ([5]; single oral 6 mg, mean ± SD): 15.6 ± 3.49%
fe, dose recovered unchanged in urine ([5]; single oral 12 mg, mean ± SD): 19.9 ± 2.26%
fe, dose recovered unchanged in urine ([5]; single oral 24 mg, mean ± SD): 18.6 ± 3.08%
fe, dose recovered unchanged in urine ([5]; single oral 36 mg, mean ± SD): 20.8 ± 9.25%
fe, dose recovered unchanged in urine ([5]; single oral 48 mg, mean ± SD): 16.4 ± 5.48%
percentage of parent remaining (CYP3A5): 80.6%
NOAEL at 4 weeks ([6]; both sexes, beagle, in vivo, dog, 4 weeks GLP, oral capsule): 1.5 mg/kg/day
AUC(0-t) ([6]; both, beagle, plasma, oral, dog 1.5 mg/kg/day, males and females combined, read-out: AUC0-24 at NOAEL): 1200 ng·h/mL
decreases in red cell mass (up to) ([6]; dog, 3 mg/kg/day): −23%
decreases in circulating lymphocytes compared with baseline ([6]; dog, 5 mg/kg/day): −20% to −37%
decreases in red cell mass (up to) ([6]; dog, 5 mg/kg/day): −32%
Adverse Findings ([6]; dog, 4 weeks GLP, leading number = dose mg/kg/day): ≧3: Popliteal lymph
peripheral NK or NKT cell counts per μL [7]: only at 12 and 24 mg
reticulocyte counts [7]: does not dose dependently reduce reticulocyte counts
protection of bone erosion (tarsal bone volume, micro CT) ([8]; 3 mg/kg bid): complete protection
efficacious exposure (AUC60), PK/PD modeling ([8]; AIA rats, about 60% inhibition of paw swelling): 85 ng·h/mL
AUC60 (60% inhibition of paw swelling), total AUC0-12 ([8]; oral bid, last day of study): 85 ± 20 ng·h/mL and 85 ng·h/mL
AUC60, fraction unbound AUC0-12 ([8]; oral bid, last day of study): 34 ± 7 ng·h/mL
Paw Swelling (exposure) ([8]; rat AIA): 62 ng·h/mL
inhibition of Paw Swelling reached at about the same level of reticulocyte inhibition ([8]; rat AIA vs reticulocyte deployment): about 80%
percentage of parent remaining (CYP3A4): 36.0%
CLint scaled at 0.5 μM [9]: < 33.3 mL/min/kg
IC50 (MATEK): > 15 µM
